Source: publication PMC12180986, “Molecular basis for differential PIP2-mediated association between vinculin and its splice isoform metavinculin” (The Journal of Biological Chemistry, 2025)
Numbering of substitutions follows the chain as printed.

Assays:
Assay type in all cases: binding
[1] = target: T1, Vt (vinculin tail domain) (Gallus gallus, UniProt P12003); assay: high-speed lipid cosedimentation with LUVs, protein titration; settings: protein titrated at fixed 10% PIP2 in PE/PC/PS/PIP2 LUVs; Kd in protein concentration; 40 mM Hepes, 150 mM NaCl, pH 7.4, room temperature; read-out: Protein concentration (μM) / app Kd
T1 construct: gene VCL; tail domain residues 879-1066; N-terminal His-tag removed by TEV; pQlinkH; E. coli BL21(DE3)
T1 sequence (P12003 879-1066 isoform P12003-1): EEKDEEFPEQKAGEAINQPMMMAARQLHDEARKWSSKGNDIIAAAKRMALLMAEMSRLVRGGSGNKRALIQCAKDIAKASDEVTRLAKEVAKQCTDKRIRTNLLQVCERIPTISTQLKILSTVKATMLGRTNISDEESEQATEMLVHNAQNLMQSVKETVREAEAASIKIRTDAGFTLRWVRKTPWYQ
Text: high-speed lipid cosedimentation with LUVs, protein titration on Vt (vinculin tail domain)

[2] = target: T2, MVt (metavinculin tail domain) (Homo sapiens, UniProt P18206); assay: high-speed lipid cosedimentation with LUVs, PIP2 gradient; settings: 10 μM protein, PE/PC/PS LUVs with 0-30 mol% PIP2; one-site fit; pH 7.4, room temperature; the table also has a μM column, which looks inconsistent with the lipid amount
T2 construct: gene VCL; tail domain residues 879-1134; N-terminal His-tag removed by TEV; 2HR-T vector; E. coli BL21(DE3)
T2 sequence (P18206 879-1134): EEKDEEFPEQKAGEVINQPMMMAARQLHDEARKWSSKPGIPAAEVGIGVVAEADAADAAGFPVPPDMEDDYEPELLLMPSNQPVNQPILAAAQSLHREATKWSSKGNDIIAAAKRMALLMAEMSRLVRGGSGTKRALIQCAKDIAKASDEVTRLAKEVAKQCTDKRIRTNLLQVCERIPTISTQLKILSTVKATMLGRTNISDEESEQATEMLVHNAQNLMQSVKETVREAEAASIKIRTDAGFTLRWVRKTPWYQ
Text: (§1) high-speed lipid cosedimentation with LUVs, PIP2 gradient on MVt (metavinculin tail domain)

[3] = target: T3, MVt (metavinculin tail domain) (Homo sapiens, UniProt P18206, A934V); assay: as above; settings: 10 μM protein, PE/PC/PS LUVs with 0-30 mol% PIP2; one-site fit; pH 7.4, room temperature; the table also has a μM column, which looks inconsistent with the lipid amount
T3 construct: gene VCL; tail domain residues 879-1134; N-terminal His-tag removed by TEV; 2HR-T vector; E. coli BL21(DE3)
T3 sequence (P18206 879-1134 A934V): T2 sequence (P18206 879-1134) with A56V
Text: as §1

[4] = target: T2, MVt (metavinculin tail domain); assay: high-speed lipid cosedimentation with LUVs, protein titration; settings: protein titrated at fixed 10% PIP2 in PE/PC/PS/PIP2 LUVs; Kd in protein concentration; 40 mM Hepes, 150 mM NaCl, pH 7.4, room temperature; read-out: Protein concentration (μM) / app Kd
Text: high-speed lipid cosedimentation with LUVs, protein titration on MVt (metavinculin tail domain)

[5] = target: T1, Vt (vinculin tail domain); assay: high-speed lipid cosedimentation with LUVs, PIP2 gradient; settings: 10 μM protein, PE/PC/PS LUVs with 0-30 mol% PIP2; one-site fit; pH 7.4, room temperature; the table also has a μM column, which looks inconsistent with the lipid amount
Text: high-speed lipid cosedimentation with LUVs, PIP2 gradient on Vt (vinculin tail domain)

Substance: L-α-phosphatidylinositol-4,5-bisphosphate [PIP2]
- Kd [1]: 4.94 ± 1.56 µM
- PIP2 (%) / app Kd [2]: 9.20 ± 1.80 % PIP2 (mol%) in liposomes
- PIP2 (%) / app Kd [3]: 9.94 ± 2.52 % PIP2 (mol%) in liposomes
- Kd [4]: 4.66 ± 1.62 µM
- PIP2 (%) / app Kd [5]: 8.89 ± 1.25 % PIP2 (mol%) in liposomes
